{
  "source": "patent US20230255934A1",
  "about": "“NURR1 RECEPTOR MODULATORS AND USES THEREOF” (The Regents of the University of California, priority 2020, published 2023)",
  "key": {"[1]": {"target": "T1, RXRα LBD (Homo sapiens, UniProt P19793)", "T1 construct": "made in house", "T1 sequence (P19793 with tags, fused parts or gaps)": "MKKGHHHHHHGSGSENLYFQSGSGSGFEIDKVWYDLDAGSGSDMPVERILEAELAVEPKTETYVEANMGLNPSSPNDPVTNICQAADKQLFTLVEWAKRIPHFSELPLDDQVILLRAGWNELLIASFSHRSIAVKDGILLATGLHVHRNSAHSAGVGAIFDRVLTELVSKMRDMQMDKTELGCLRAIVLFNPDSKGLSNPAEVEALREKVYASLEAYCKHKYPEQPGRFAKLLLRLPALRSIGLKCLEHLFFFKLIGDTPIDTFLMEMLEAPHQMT", "test": "MST binding to RXRα LBD (specificity control)", "source_text": "The Nurr1 LBD protein, containing the N-terminal “LAP2” sequence that is recognized by a “coumarin ligase”, was expressed and purified using metal affinity and size-exclusion chromatography according to the previously reported protocol, except that the TEV cleavage step and reverse metal affinity chromatography were omitted.^1 The RXRα LBD protein, containing the N-terminal “LAP2” sequence, was expressed and purified identically to the Nurr1 LBD protein with minor modifications. Specifically, the elution of protein from Talon resin was performed by a step gradient of 10 CV each of 50 mM, 100 mM, 200 mM and 300 mM imidazole in 50 mM Tris-HCl buffer containing 300 mM NaCl at pH 7.8. Purity of protein in each fraction was analyzed by SDS PAGE and fractions eluted with 100-300 mM imidazole were pooled and concentrated. […]\nData were collected using the Monolith NT.115 System (Nanotemper), with settings for all samples at 40% excitation power and 40% MST power. The initial fluorescence was recorded for 3 sec and the thermophoresis fluorescence response was recorded for 20 sec. The data was inspected with Palmist software^5, and data points affected by initial fluorescence quenching or photobleaching were eliminated. The fluorescent response for each sample was normalized to the initial fluorescence using Palmist software to provide the values of thermophoresis (Fn). […]"}, "[2]": {"target": "T2, Nurr1-LBD_Gal4-DBD chimeric protein (Homo sapiens, UniProt P43354)", "T2 construct": "prepared by subcloning the Nurr1 LBD fragment into […] plasmid (Clontech) containing GAL4 DBD; expressed in transfected cells; host or cells: MN9D TET-ON cells", "T2 sequence (P43354 360-595 limits assumed, change not shown)": "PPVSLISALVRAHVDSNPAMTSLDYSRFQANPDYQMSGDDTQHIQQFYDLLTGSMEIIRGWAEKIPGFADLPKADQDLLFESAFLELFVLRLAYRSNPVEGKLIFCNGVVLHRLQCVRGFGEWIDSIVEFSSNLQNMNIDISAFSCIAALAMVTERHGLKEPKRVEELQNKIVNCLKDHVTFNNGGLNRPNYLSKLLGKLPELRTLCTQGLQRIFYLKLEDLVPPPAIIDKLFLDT", "test": "Nurr1-LBD_Gal4-DBD luciferase reporter assay in MN9D cells", "format": "cell-based", "conditions": "6 h treatment", "protocol": "Luciferase Reporter Assays. These assays were executed using standard protocols. MN9D TET-ON cells (P5) were grown for 60-72 h (see above) before being seeded at 1-10^5 cell/well in 24-well plate in DMEM/F12+5% TET-ON approved FBS 3 h before transfection. Cells were transfected using Lipofectamine 2000 (Invitrogen) and plasmid DNAs according to manufacturer's instructions. Lipofectamine/DNA complexes were prepared in Opti-Mem medium (Gibco) and incubated with cells overnight. The Nurr1-LBD_Gal4-DBD expressing plasmid was prepared by subcloning the Nurr1 LBD fragment into […] plasmid (Clontech) containing GAL4 DBD. […] Transfected cells were treated with increasing concentrations of 5-chloroindole or vehicle only for 6 h, after which time the media was aspirated and luciferase activity was measured. […] Resulting solutions were transferred to a white opaque 96-well plate (65 μL/well; 3 wells/sample) and firefly luciferase activity was measured using Veritas Microplate Luminometer (Turner BioSystems, Sunnyvale, Calif.). […] Renilla luciferase activity was measured after 20 min of incubation of the plate inside the luminometer. Experimental values are expressed as the average of firefly/renilla luciferase activity±standard deviation (for three independent biological replicates). […]"}},
  "note": "Entries after “also recorded” stand apart in the source; their conditions may differ.",
  "data": [
    {"smiles": "Clc1ccc2[nH]ccc2c1", "note": "[5-chloroindole]", "values": [
      {"measurement": "Binding to the RXRα LBD (in words)", "setting": "[1]", "result": "does not exhibit saturable binding"},
      {"measurement": "Luciferase production, Nurr1-LBD_Gal4-DBD reporter", "setting": "[2]", "result": "stimulates production of luciferase; also recorded: stimulates the activity of Nurr1"}
    ]}
  ]
}
